In US11066414B2, “Cot modulators and methods of use thereof” (Gilead Sciences, Inc., priority 2015, dated 2021):
Where two headings read alike, the source gives them in different places.

Legend:
TNFα = assay: Cot Monocyte TNFα Cell Based Assay
Human Cot = Human Cot (Homo sapiens (Human), UniProt P41279); assay: High Throughput Cot Biochemical Assay
[1] = Homo sapiens, Monocyte, read-out: EC50 TNF, LPS-stimulated human monocytes, TNFα
[2] = IC50 HTRF, Cot HTRF (TR-FRET) biochemical assay
[3] = read-out: EC50 TNF, LPS-stimulated human monocytes, TNFα TR-FRET
[4] = read-out: IC50 HTRF, Cot HTRF (TR-FRET KinEASE) biochemical assay, 400 μM ATP

Chain of Human Cot (P41279 30-397): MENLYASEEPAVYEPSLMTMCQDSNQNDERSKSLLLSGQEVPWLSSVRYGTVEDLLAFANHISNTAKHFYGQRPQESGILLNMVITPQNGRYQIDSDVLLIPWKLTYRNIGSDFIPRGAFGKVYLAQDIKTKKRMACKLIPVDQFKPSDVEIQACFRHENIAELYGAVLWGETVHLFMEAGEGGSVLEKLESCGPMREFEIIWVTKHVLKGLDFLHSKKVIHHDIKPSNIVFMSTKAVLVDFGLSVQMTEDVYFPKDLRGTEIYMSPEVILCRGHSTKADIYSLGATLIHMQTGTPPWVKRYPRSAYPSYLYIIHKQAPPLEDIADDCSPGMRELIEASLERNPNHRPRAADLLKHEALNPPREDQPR

CC(C)(C)CNc1c(C#N)cnc2c(Cl)cc(N[C@H](c3cn(C4(C5CC5)CC4)nn3)c3cccc4cnccc34)cc12 [Example 682, (S)-6-(((4-(1-(1-bi(cyclopropan)]-1-yl)-1H-1,2,3-triazol-4-yl)(isoquinolin-5-yl)methyl)amino)-8-chloro-4-(neopentylamino)quinoline-3-carbonitrile]
EC50 (TNFα; read-out: EC50 TNF, LPS-stimulated human monocytes, TNFα): 66 nM
IC50 (Human Cot; read-out: IC50 HTRF, Cot HTRF (TR-FRET) biochemical assay): 7 nM

CC(C)(C)ONc1c(C#N)cnc2c(I)cc(N[C@H](c3cn(C4CC4)nn3)c3cccc4ncsc34)cc12 [Example 457, (S)-6-((benzo[d]thiazol-7-yl(1-cyclopropyl-1H-1,2,3-triazol-4-yl)methyl)amino)-4-(tert-butoxyamino)-8-iodoquinoline-3-carbonitrile]
EC50 (TNFα; [1]): 1000 nM
IC50 (Human Cot; [2]): 315 nM

Cc1nc(F)ccc1[C@H](Nc1cc(Cl)c2ncc(C#N)c(NCC(C)(C)C)c2c1)c1cn(Cc2c(F)cccc2F)nn1 [Example 654, (S)-8-chloro-6-(((1-(2,6-difluorobenzyl)-1H-1,2,3-triazol-4-yl)(6-fluoro-2-methylpyridin-3-yl)methyl)amino)-4-(neopentylamino)quinoline-3-carbonitrile]
EC50 (TNFα; [1]): 36 nM
IC50 (Human Cot; [2]): 3 nM

CC(C)(O)[C@H](Nc1c(C#N)cnc2c(Cl)cc(N[C@@H](c3cccnc3)c3c[nH]nn3)cc12)c1ccccc1 [Example 188, 8-chloro-4-(((R)-2-hydroxy-2-methyl-1-phenylpropyl)amino)-6-(((S)-pyridin-3-yl(1H-1,2,3-triazol-4-yl)methyl)amino)quinoline-3-carbonitrile]
EC50 (TNFα; [1]): > 10000 nM
IC50 (Human Cot; [2]): > 10000 nM

(S)-6-(((1-(1,1′-bi(cyclopropan)]-1-yl)-1H- 1,2,3-triazol-4-yl)(1-methoxylsoquinolin- 5-yl)methyl)amino)-8-chloro-4- (neopentylamino)quinoline-3-carbonitrile [Example 931]
EC50 (TNFα; [3]): 134 nM
IC50 (Human Cot; [4]): 10 nM

Cc1nc(F)ccc1[C@H](Nc1cc(Cl)c2ncc(C#N)c(NCC(C)(C)C(F)(F)F)c2c1)c1nnn(C2(C)CC2)c1F [Example 959, (S)-8-chloro-6-(((5-fluoro-1-(1-methylcyclopropyl)-1H-1,2,3-triazol-4-yl)(6-fluoro-2-methylpyridin-3-yl)methyl)amino)-4-((3,3,3-trifluoro-2,2-dimethylpropyl)amino)quinoline-3-carbonitrile]
EC50 (TNFα; Homo sapiens, Monocyte, read-out: EC50 TNF, LPS-stimulated human monocytes, TNFα TR-FRET): 41 nM
IC50 (Human Cot; IC50 HTRF, Cot HTRF (TR-FRET KinEASE) biochemical assay, 400 μM ATP): 3 nM

CC(C)(C)N1CCC(n2cc([C@@H](Nc3cc(Cl)c4ncc(C#N)c(Nc5ccc(F)c(Cl)c5)c4c3)c3csc4ccccc34)nn2)CC1 [Example 351, (S)-6-((benzo[b]thiophen-3-yl(1-(1-(tert-butyl)piperidin-4-yl)-1H-1,2,3-triazol-4-yl)methyl)amino)-8-chloro-4-((3-chloro-4-fluorophenyl)amino)-quinoline-3-carbonitrile]
EC50 (TNFα; [1]): 744 nM
IC50 (Human Cot; [2]): 10 nM

Cc1ncccc1[C@H](Nc1cc(Cl)c2ncc(C#N)c(Nc3cccc(Cl)c3)c2c1)c1cn(C2CCN(C(C)(C)C)CC2)nn1 [Example 226, (S)-6-(((1-(1-(tert-butyl)piperidin-4-yl)-1H-1,2,3-triazol-4-yl)(2-methylpyridin-3-yl)methyl)amino)-8-chloro-4-((3-chlorophenyl)amino)quinoline-3-carbonitrile]
EC50 (TNFα; [1]): 880 nM
IC50 (Human Cot; [2]): 8 nM

CC(C)(C)CNc1c(C#N)cnc2c(Cl)cc(N[C@H](c3cn(C4(C(N)=O)CCC4)nn3)c3cccc4cnccc34)cc12 [Example 562, (S)-1-(4-(((8-chloro-3-cyano-4-(neopentyl-amino)quinolin-6-yl)amino)(isoquinolin-5-yl)methyl)-1H-1,2,3-triazol-1-yl)cyclobutane-1-carboxamide]
EC50 (TNFα; [1]): 231 nM
IC50 (Human Cot; [2]): 2 nM

COc1nccc2c([C@H](Nc3cc(Cl)c4ncc(C#N)c(NCC(C)(C)C)c4c3)c3cn(C45CC(C4)C5)nn3)cccc12 [Example 911, (S)-6-(((1-(bicyclo[1.1.1]pentan-1-yl)-1H-1,2,3-triazol-4-yl)(1-methoxylsoquinolin-5-yl)methyl)amino)-8-chloro-4-(neopentylamino)quinoline-3-carbonitrile]
EC50 (TNFα; [3]): 85 nM
IC50 (Human Cot; [4]): 7 nM
